The source of these data is US6476044B1, “Use of morphine derivatives as medicaments for the treatment of neuropathic problems” (Gruenenthal GmbH, priority 2000, dated 2002).

For assay [1], the target named is T1, ORL1 receptor (Homo sapiens, UniProt P41146). The experiment in a line: ORL1 reporter gene assay, agonist test (inhibition of cAMP-dependent luciferase formation). More on the design: A cDNA coding for the ORL1 receptor was cloned using standard methods from THP-1 cells; expressed in transfected cells; host or cells: CHO-K1/pSE66/K9/pZeoORL17/K21. As to conditions: agonist potency: concentration at semi-maximum inhibition of luciferase formation; CHO-K1 cells expressing human ORL1. It is filed as cell-based. From the text: (§1) The morphinan derivatives of the general formula I according to the invention were identified with a reporter gene system as ORL1 receptor agonists or as ORL1 receptor antagonists. This reporter gene system is based on the expression of the human ORL1 receptor in CHO-K1 cells, which carry a cAMP-sensitive luciferase gene (Wnendt et al., Regulatory Peptides, 80, 1999, p. 127 the entire disclosure of which is incorporated herein by reference). The formation of cAMP is induced by forskolin, an adenylate cyclase activator.
Also, they inhibit in a concentration-dependent manner luciferase formation due to the binding to the ORL1 receptor. The potency, expressed as the IC50 value, indicates the concentration at which the semi-maximum effect of the agonist is reached.
(§2) The reporter gene system was constructed as follows:
A cDNA coding for the ORL1 receptor was cloned using standard methods from THP-1 cells (European Cell Culture Collection, Porton Down, Great Britain) of a human monocyte cell line and integrated into the plasmid pZeoSV (Invitrogen, Leek, Netherlands). This plasmid, pZeoORL17, was used for the transfection of a cell line, CHO-K1/pSE66/K9, that contains the cAMP reporter plasmid pSE66. […]
(Reporter assays use an easily measured gene product as a stand-in for the process of interest.)

The target in assay [2] is T1, ORL1 receptor. The experiment in a line: Receptor binding assay with 3H-nociceptin/orphanin FQ using membranes of recombinant CHO-ORL1 cells. Also noted: expressed in transfected cells; host or cells: recombinant CHO-ORL1 cells (membranes). The method, then: Furthermore a receptor binding assay with ^3H-nociceptin/ orphanin FQ was carried out with the compounds according to the invention using membranes of recombinant CHO-ORL1 cells. This test system was implemented according to the method proposed by Ardati et al. (Mol. Pharmacol., 51, 1997, pp. 816-824). The concentration of ^3H-N/OFQ in these experiments was 0.5 nM. The binding assays were performed in each case with 20 μg of membrane protein per 200 μl of batch in 50 mM of Hepes, pH 7.4, 10 mM MgCl2 and 1 mM EDTA. The binding to the ORL1 receptor was determined using in each case 1 mg of WGA-SPA beads (Amersham-Pharmacia, Freiburg) by incubating the batch for one hour at room temperature followed by measurement in a Trilux scintillation counter (Wallac, Finland). The affinity is given as the Ki value.

Assay [3] has as its target T1, ORL1 receptor. The experiment in a line: ORL1 reporter gene assay, antagonist test (cAMP-sensitive luciferase, forskolin-induced, in presence of 10 nM nociceptin/orphanin FQ). The class given is cell-based. Also noted: A cDNA coding for the ORL1 receptor was cloned using standard methods from THP-1 cells; expressed in transfected cells; host or cells: CHO-K1/pSE66/K9/pZeoORL17/K21.
Excerpt: as §1
The inhibition of luciferase formation due to the agonists is lifted to the extent that the antagonist binds to the ORL1 receptor. […] The effect of the antagonists is described by the pKB value.
as §2
A cDNA coding for the ORL1 receptor was cloned using standard methods from THP-1 cells (European Cell Culture Collection, Porton Down, Great Britain) of a human monocyte cell line and integrated into the plasmid pZeoSV (Invitrogen, Leek, Netherlands). This plasmid, pZeoORL17, was used for the transfection of a cell line, CHO-K1/pSE66/K9, that contains the cAMP reporter plasmid pSE66. The plasmid pSE66 was constructed on the basis of the plasmid pMAMneo-LUC (Clontech, Palo Alto, Calif.) by replacing the RSV promoter of this plasmid by a promoter region in which six CRE elements (cAMP-responsive elements, Comb et al., Nature, 323, 1986, pp. 353-356; Montminy et al., Proc. Natl. Acad. Sci. USA, 83, 1986, pp. 6682-6686; Short et al., J. Biol. Chem., 261, 1986, pp. 9721-9726) lie upstream of a promoter. The SV40 promoter derives from the plasmid pGL2-promoter (Promega, Madison, Wis.). The promoter region constructed in this way controls in the plasmid pSE66 the expression of the luciferase gene from pMAMneo-LUC. Furthermore, pSE66 carries a G418 resistance gene under the control of a further SV40 promoter. The cell line CHO-K1 (European Cell Culture Collection, Porton Down, Great Britain) was rendered stable with pSE66 and the clone CHO-K1/pSE66/K9 was selected for the transfection with pZeoORL17. […]

Setting [4] is: 0.5 nM 3H-N/OFQ, CHO-ORL1 membranes, WGA-SPA beads, one hour at room temperature, read-out: Ki (nM) ORL1 Binding Assay.
The mark [5] stands for this setting: read-out: PKB ORL1 Reporter Gene Assay (converted).

Counter-ions that a name gives are not always drawn. Like-named read-outs stand apart in the source and are kept apart here.

T1 sequence (P41146 whole entry): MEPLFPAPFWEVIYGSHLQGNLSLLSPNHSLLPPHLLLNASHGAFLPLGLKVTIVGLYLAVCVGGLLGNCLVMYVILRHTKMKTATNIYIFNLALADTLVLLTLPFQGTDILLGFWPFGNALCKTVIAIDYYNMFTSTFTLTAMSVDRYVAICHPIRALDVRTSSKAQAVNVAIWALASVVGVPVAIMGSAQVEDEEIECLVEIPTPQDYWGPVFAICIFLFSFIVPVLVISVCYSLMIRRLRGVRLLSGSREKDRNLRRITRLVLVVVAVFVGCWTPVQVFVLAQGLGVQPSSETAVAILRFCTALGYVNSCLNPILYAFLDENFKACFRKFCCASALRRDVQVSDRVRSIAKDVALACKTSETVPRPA

Turning to “17-cyclopropylmethyl-6,7-didehydro-4,5α-epoxy-3-hydroxy-14-(methoxynaphthalene)1′-(β-methylnaphthalene)indolo-[6,7:2,′3′]-morphinan hydrochloride [Example 4]”, the IC50 – broadly, the midpoint of a concentration-inhibition curve – in assay [1] worked out at 31.2 nM. Besides, the Ki (commonly a measure of affinity in units of concentration, obtained from inhibition or displacement) in assay [2] (setting [4]) was 982 nM. On to “17-cyclopropylmethyl-6,7-didehydro-4,5α-epoxy-14-hydroxy-3-benzyloxy-1′-(p-methoxycarbonylmethylphenyl)-indolo-[6,7:2,′3′]-morphinan hydrochloride [Example 5]”, for which, in assay [1], the IC50 is 25.8 nM. Turning to `C=CCN1CCC23c4c5ccc(O)c4OC2c2c(c4ccccc4n2Cc2ccccc2Cl)CC3(O)C1C5` (stereo not drawn) [Example 1, 17-allyl-6,7-didehydro-4,5α-epoxy-3,14-dihydroxy-1′-(o-chlorobenzyl)indolo-[6,7:2,′3′]-morphinan hydrochloride], the Kb in assay [3] was 42.7 nM. Further, the Ki in assay [2] turned out to be 449 nM. `C=CCN1CCC23c4c5ccc(O)c4OC2c2c(c4ccccc4n2Cc2cccc(Cl)c2)CC3(OCc2cccc(Cl)c2)C1C5` (stereo not drawn) [Example 2, 17-allyl-6,7-didehydro-4,5α-epoxy-3-hydroxy-14-(m-chloromethoxyphenyl)1′-(m-chlorobenzyl)indolo[6,7:2,′3′]-morphinan hydrochloride]: the Kb in assay [3] (setting [5]) was 102 nM. Further, in assay [2] (setting [4]), the Ki was 1080 nM. The corresponding values for `Oc1ccc2c3c1OC1c4c(c5ccccc5n4Cc4ccccc4Cl)CC4(OCc5ccccc5Cl)C(C2)N(CC2CC2)CCC314` (stereo not drawn) [Example 3, 17-cyclopropylmethyl-6,7-didehydro-4,5α-epoxy-3-hydroxy-14-(o-chloromethoxyphenyl)1′-(o-chlorobenzyl)-indolo[6,7:2,′3′]-morphinan hydrochloride] are 407 nM and 718 nM.
